Assay results published in patent US20240246955A1, “TROPOMYOSIN RECEPTOR KINASE (TRK) DEGRADATION COMPOUNDS AND METHODS OF USE” (CULLGEN (SHANGHAI), INC., priority 2021, published 2024).

What was measured:
Assay type in all cases: cell-based
KM12 cells = assay: KM12 cell viability assay (CellTiter-Glo); conditions: Homo sapiens, 72 h; KM12 cells, 3 days, CellTiter-Glo
In short: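 KM12 cells, 5000 per well, treated 3 days with 11-point 3-fold serial dilutions of heterobifunctional compounds. Viability by CellTiter-Glo luminescence, normalized to untreated cells; IC50 from least-squares nonlinear regression.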

[1] = test system: TRKA G595R mutated KM12 cells; assay: Cell viability assay in TRKA G595R mutated KM12 cells (CellTiter-Glo); conditions: Homo sapiens, 72 h, 3 days
Protocol: KM12, TRKA G595R mutated KM12, HEL, and other cells were cultured at 37° C. with 5% CO2 in DMEM or RPMI 1640 Medium supplemented with 10% fetal bovine serum. Cells were authenticated using the short tandem repeat (STR) assays. Mycoplasma test results were negative.
Cells were seeded at a density of 5000 cells per well in 96-well assay plates and treated with test compounds following a 11-point 3-fold serial dilution. Three days later, cell viability was determined using the CellTiter-Glo assay kit (Promega) according to the manufacturer's instructions. The dose-response curves were determined and IC50 values were calculated using the GraphPad Prism software following a nonlinear regression (least squares fit) method.
The activities of selected compounds on cell viability (IC50 values) and TMP3-TRKA degradation (percentage degradation at 10 nM) in KM12 cells or KM12-G595R mutated KM12 cells (KM12-G595R) are listed in Table 2.

TPM3-TRKA fusion protein = biological target: T1, TPM3-TRKA fusion protein (Homo sapiens, UniProt P04629); assay: TPM3-TRKA degradation in KM12 cells (Western blot); conditions: 16 hours, TRK protein, immunoblot
T1 construct: TPM3 (N-terminal part of tropomyosin alpha-3, natural fusion partner); endogenous in cells; host or cells: KM12 colon cancer cells; the other entry of the earlier key: TPM3 (P06753, Tropomyosin alpha-3 chain)
In short: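 KM12 cells treated with compound at 10 nM or 100 nM for 16 h, lysed in RIPA, and TRK protein measured by immunoblot with TRK-specific antibody and chemiluminescence band quantitation. Percent degradation binned: −, none; +, <50%; ++, ≥50% but <80%; +++, ≥80%.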

wildtype TRKA protein = biological target: T2, wildtype TRKA protein (Homo sapiens, UniProt P04629); assay: Wildtype TRKA degradation in HEL cells (Western blot); conditions: 0.1 nM to 1000 nM, 16 hours, Western blot (FIG. 4A)
T2 construct: HEL cells expressing endogenous TRKA; endogenous in cells; host or cells: HEL erythroleukemia cells
Protocol: HEL cells were treated with heterobifunctional compounds CPD-019 and CPD-002 at 10 nM or 100 nM for 16 hours.
(§1) HEL cells expressing endogenous TRKA, and NIH3T3-TRKB and NIH3T3-TRKC cells prepared as described above were treated with heterobifunctional compound CPD-031 at 0.1 nM, 1 nM, 10 nM, 100 nM and 1000 nM for 16 hours.
(§2) Cultured cells were washed with cold PBS once and lysed in cold RIPA buffer supplemented with protease inhibitors and phosphatase inhibitors (Beyotime Biotechnology). The solutions were then incubated at 4° C. for 30 minutes with gentle agitation to fully lyse cells. Cell lysates were centrifuged at 13,000 rpm for 10 minutes at 4° C. and pellets were discarded. Total protein concentrations in the lysates were determined by BCA assays (Beyotime Biotechnology). Cell lysates were mixed with Laemmli loading buffer to 1× and heated at 99° C. for 5 min. Proteins were resolved on SDS-PAGE and visualized by chemiluminescence. Images were taken by a ChemiDoc MP Imaging system (Bio-Rad). Protein bands were quantitated using the software provided by Bio-Rad.

human full length TRKB = biological target: T3, human full length TRKB (Homo sapiens, UniProt Q16620); assay: TRKB degradation in NIH3T3-TRKB cells (Western blot); conditions: 0.1 nM to 1000 nM, 16 hours, Western blot (FIG. 4B)
T3 construct: lentivirus directing expression of human full length TRKB or TRKC; expressed in transfected cells; host or cells: NIH3T3 cells, lentiviral transduction, puromycin selection
Protocol: (§3) NIH3T3 cells were infected with lentivirus directing expression of human full length TRKB or TRKC. Cells were then selected using 1 ug/ml puromycin to establish NIH3T3-TRKB and NIH3T3-TRKC cell lines that stably expressed human TRKB or TRKC, respectively.
as §1, §2

human full length TRKC = biological target: T4, human full length TRKC (Homo sapiens, UniProt Q16288); assay: TRKC degradation in NIH3T3-TRKC cells (Western blot); conditions: 0.1 nM to 1000 nM, 16 hours, Western blot (FIG. 4C)
T4 construct: lentivirus directing expression of human full length TRKB or TRKC; expressed in transfected cells; host or cells: NIH3T3 cells, lentiviral transduction, puromycin selection
Protocol: as §3, §1, §2

T1 sequence (P04629 with tags, fused parts or gaps): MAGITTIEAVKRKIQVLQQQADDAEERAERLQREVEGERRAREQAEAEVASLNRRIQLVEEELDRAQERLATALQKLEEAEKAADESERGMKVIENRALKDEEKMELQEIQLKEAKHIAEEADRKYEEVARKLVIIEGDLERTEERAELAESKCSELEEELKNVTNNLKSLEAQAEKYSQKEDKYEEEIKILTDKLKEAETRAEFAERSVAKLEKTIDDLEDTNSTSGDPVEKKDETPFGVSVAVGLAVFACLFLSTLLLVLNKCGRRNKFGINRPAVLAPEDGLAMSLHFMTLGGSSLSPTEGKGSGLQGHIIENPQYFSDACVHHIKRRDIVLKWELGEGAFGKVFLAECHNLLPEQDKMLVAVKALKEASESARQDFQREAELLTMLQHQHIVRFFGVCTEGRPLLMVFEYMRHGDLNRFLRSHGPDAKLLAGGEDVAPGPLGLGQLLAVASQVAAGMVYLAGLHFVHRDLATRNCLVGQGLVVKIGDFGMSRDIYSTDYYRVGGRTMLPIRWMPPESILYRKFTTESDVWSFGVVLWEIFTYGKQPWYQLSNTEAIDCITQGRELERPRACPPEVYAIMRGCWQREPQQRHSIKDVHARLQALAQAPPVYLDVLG
T2 sequence (P04629 33-796): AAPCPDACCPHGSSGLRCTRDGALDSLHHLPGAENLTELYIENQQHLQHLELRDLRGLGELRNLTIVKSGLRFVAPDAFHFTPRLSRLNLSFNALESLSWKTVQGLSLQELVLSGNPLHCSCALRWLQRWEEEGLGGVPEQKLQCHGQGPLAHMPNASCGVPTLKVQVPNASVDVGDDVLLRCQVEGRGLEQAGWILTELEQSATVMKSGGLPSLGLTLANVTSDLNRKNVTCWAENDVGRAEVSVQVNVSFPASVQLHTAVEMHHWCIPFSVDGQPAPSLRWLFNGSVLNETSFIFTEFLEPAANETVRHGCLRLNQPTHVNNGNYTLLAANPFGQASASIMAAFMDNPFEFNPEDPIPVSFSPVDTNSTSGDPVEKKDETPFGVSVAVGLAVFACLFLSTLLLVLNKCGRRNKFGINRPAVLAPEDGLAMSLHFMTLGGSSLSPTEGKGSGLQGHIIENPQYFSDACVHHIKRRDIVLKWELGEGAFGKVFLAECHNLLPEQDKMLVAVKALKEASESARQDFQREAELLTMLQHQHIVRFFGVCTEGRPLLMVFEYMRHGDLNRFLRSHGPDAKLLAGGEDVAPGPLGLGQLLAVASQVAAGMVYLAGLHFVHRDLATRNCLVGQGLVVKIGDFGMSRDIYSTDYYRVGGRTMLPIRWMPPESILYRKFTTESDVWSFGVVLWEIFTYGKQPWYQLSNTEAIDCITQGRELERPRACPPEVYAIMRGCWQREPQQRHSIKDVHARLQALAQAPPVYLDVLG
T3 sequence (Q16620 32-822): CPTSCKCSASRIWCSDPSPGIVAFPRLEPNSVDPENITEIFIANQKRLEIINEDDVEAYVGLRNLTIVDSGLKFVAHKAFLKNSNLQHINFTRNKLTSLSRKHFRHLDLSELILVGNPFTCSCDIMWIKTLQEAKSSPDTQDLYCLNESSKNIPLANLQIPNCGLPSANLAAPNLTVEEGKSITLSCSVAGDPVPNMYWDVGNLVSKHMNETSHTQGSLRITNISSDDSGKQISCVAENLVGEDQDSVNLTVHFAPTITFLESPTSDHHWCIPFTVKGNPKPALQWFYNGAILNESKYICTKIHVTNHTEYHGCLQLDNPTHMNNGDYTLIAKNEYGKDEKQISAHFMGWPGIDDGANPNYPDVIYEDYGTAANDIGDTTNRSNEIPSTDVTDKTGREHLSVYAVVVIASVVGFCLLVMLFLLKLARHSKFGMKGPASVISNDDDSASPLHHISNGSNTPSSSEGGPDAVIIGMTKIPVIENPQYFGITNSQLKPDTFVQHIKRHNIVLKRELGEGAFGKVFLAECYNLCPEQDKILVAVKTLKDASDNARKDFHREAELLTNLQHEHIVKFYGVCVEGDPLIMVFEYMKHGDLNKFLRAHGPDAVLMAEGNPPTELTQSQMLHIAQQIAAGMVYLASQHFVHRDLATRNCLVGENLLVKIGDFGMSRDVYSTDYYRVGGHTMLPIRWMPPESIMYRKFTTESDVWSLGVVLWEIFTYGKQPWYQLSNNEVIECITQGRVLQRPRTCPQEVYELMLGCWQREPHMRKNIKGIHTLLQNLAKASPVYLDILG
T4 sequence (Q16288 32-839): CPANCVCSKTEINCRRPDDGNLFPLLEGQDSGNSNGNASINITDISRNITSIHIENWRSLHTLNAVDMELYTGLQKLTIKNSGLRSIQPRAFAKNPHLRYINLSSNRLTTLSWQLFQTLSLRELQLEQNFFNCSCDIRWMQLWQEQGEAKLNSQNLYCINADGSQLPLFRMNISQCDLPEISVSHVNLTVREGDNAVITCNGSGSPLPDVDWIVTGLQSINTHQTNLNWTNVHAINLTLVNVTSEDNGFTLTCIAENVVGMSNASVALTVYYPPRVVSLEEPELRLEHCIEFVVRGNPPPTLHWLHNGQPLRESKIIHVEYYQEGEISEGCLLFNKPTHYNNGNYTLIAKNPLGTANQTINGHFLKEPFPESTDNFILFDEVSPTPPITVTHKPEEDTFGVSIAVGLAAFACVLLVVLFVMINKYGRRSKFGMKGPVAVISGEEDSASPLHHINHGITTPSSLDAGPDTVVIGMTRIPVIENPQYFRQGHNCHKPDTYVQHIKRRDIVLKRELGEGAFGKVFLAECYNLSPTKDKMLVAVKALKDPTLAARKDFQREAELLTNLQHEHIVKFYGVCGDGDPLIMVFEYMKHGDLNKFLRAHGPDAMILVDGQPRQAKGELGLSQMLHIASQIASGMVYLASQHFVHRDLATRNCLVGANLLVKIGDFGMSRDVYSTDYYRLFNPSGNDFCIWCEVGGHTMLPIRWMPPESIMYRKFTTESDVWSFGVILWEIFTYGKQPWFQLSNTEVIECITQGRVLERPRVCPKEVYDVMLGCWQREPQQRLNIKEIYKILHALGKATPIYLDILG

inhibition at 0.01 µM (TPM3-TRKA fusion protein; 10 nM): > 80% | inhibition at 0.1 µM (TPM3-TRKA fusion protein; 100 nM): > 80% | wildtype TRKA protein levels in HEL cells (wildtype TRKA protein): significantly reduced | TRKB protein levels (human full length TRKB): minimal reduction | TRKC protein levels (human full length TRKC): minimal reduction
SMILES: COCCN1C[C@@H](NC(=O)Nc2c(C)c(-c3cnc(N4CCN(CCNc5ccc6c(c5)C(=O)N(C5CCC(=O)NC5=O)C6=O)CC4)nc3)nn2-c2ccccc2)[C@H](c2cccc(F)c2)C1 (stereo partly drawn) [CPD-031, 1-(3-(2-(4-(2-((2-(2,6-dioxopiperidin-3-yl)-1,3-dioxoisoindolin-5-yl)amino)ethyl)piperazin-1-yl)pyrimidin-5-yl)-4-methyl-1-phenyl-1H-pyrazol-5-yl)-3-((3S,4R)-4-(3-fluorophenyl)-1-(2-methoxyethyl)pyrrolidin-3-yl)urea]
IC50 (KM12 cells): 2.04 nM | IC50 [1]: 6.11 nM
